From article PMC11078216, “Discovery of potent and selective activity-based probes (ABPs) for the deubiquitinating enzyme USP30” (RSC Chemical Biology, 2024)

Molecular target: T1, USP30 (Homo sapiens, UniProt Q70CQ3)
T1 construct: Catalog #E-582 residues 57-517; purchased E-582
T1 sequence (Q70CQ3 57-517): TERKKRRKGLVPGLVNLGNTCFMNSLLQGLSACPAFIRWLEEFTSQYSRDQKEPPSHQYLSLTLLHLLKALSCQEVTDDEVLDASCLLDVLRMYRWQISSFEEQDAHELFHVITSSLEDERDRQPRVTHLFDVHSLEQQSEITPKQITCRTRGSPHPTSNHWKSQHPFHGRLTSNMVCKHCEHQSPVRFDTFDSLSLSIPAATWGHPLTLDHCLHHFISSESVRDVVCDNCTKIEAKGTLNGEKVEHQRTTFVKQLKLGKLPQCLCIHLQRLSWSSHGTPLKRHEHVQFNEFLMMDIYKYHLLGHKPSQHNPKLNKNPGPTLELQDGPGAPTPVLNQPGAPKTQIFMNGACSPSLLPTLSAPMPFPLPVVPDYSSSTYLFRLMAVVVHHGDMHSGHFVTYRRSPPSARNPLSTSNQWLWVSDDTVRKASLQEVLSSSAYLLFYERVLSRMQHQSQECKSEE
Experiment: USP30 FP kinetic analysis (kobs/I, Ki, kinact) using Ub-Lys(TAMRA)-Gly
Format: biochemical
Conditions: for kinact/KI: read-out: kobs/I
Protocol: We further characterised inhibition kinetics for ABPs in a FP assay using Ub-Lys(TAMRA)-Gly. kobs/I, Ki and kinact determination assay was performed using 30 nM USP30 and 100 nM Ub-Lys(TAMRA)-Gly as described in ESI, ^† Section S3.1.c. FP was monitored kinetically over an hour after addition of the substrate, and response curves fitted to y = (vi/kobs) (1 − exp(−kobsx)) to calculate kobs/I, 5680 (95% Cl = 4723–6638) M^−1 s^−1 for IMP-2587, and 3021 (95% Cl = 2350–3693) M^−1 s^−1 for IMP-2586 (Fig. S1, ESI ^†).
4. Biochemical and biological methods and proteomics
1) Biochemical USP30 fluorescence polarisation (FP) assay using Ub-Lys(TAMRA)-Gly […]
USP30 was diluted in reaction buffer A (40 mM Tris, pH 7.5, 0.005% Tween 20, 0.5 mg/ml BSA, 5 mM betamercaptoethanol) and 10 μL of diluted 10.5 nM […]
b. USP30 biochemical kinetic assay
Reactions were performed in triplicate in black 384 well plates (small volume, Greiner 784076) in a final reaction volume of 20 ul. […]
Pherastar Plus (BMG Labtech). l Excitation 540 nm; l Emission 590 nm.
Inhibition kinetics for compound ABP 2 and ABP 4 were determined by preparing compound dilution plates at 21× final concentration in 50% DMSO in water. 50% DMSO (1 μL) or diluted compound (1 μL) was added to the reaction plate. Substrate Ub-TAMRA (200 nM, 10 μL) (final concentration: 100 nM) was prepared in buffer A described in section 3.1.a and added to the reaction plate. Reactions were initiated by the addition of USP30 (21 nM, 10 μL) (final concentration 10 nM), and fluorescence polarisation read immediately for 1 h in every 2 min. Analysis was performed in GraphPad Prism.
Kinetic progress curves were fitted to equation y = (vi/kobs) (1 − exp(−kobs*x)) to determine the kobs value (for first 30 min data). The kobs value was then plotted against the inhibitor concentration to […]

[1] = 30 nM USP30, 100 nM Ub-Lys(TAMRA)-Gly, nonlinear regression to kobs = kinact/(1 + (Ki/x))

SMILES	Ki [1] [nM]	kinact/KI [M⁻¹ s⁻¹]	KI (inactivation) [1] [nM]
N#CN1CC[C@@H](NC(=O)c2cc(-c3ccccc3Oc3ccc(N=[N+]=[N-])cc3)n[nH]2)C1 [IMP-2586]	5.6	3020	
C#Cc1cccc(-c2cc(NC(=O)CC3CCN(C#N)C3)on2)c1 (centres unmarked) [IMP-2587]	42.8	5680	42.7
